According to paper PMC4521925, “17β-Hydroxysteroid Dehydrogenase Type 2 Inhibition: Discovery of Selective and Metabolically Stable Compounds Inhibiting Both the Human Enzyme and Its Murine Ortholog” (PLoS ONE, 2015):

Key:
ERα = biological target: T1, ERα (Homo sapiens, UniProt P03372); assay: Estrogen receptor affinity in a cell-free assay (ERα); format: binding; conditions: 1000-fold excess relative to E2; recombinant human ERα
T1 sequence (P03372 1-595): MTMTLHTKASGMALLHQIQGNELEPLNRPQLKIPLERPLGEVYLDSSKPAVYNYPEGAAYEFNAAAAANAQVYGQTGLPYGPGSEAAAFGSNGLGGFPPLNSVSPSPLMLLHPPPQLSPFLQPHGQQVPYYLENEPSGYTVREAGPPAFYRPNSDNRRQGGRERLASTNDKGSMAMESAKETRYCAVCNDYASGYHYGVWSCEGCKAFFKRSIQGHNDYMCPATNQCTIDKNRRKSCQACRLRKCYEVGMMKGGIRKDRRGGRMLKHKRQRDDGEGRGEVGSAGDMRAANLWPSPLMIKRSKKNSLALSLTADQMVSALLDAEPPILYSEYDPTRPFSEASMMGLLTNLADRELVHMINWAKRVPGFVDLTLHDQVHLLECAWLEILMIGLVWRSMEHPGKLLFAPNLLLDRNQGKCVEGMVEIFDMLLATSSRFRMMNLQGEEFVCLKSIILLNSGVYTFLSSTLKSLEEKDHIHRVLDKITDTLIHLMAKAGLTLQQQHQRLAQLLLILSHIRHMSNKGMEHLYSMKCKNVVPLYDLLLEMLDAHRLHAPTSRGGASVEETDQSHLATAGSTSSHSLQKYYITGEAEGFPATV
Experimental: The binding affinity of selected compounds to ERα and ERβ was determined according to the recommendations of the US Environmental Protection Agency (EPA) by their Endocrine Disruptor Screening Program (EDSP)[24] using recombinant human proteins.
The potential inhibitors were dissolved in DMSO (5% final concentration). […] After incubation, ligand-receptor complexes were selectively bound to hydroxyapatite (83.5 g/LinTE-buffer). The bound complex was washed three times and resuspended in ethanol. For radiodetection, scintillator cocktail (Quickszint 212, Zinsser Analytic, Frankfurt) was added and samples were measured in a liquid scintillation counter (1450 LSC & Luminescence Counter, Perkin Elmer).
After the assay was established and validated, a modification was made to increase throughput.

h17β-HSD2 = biological target: T2, h17β-HSD2 (Homo sapiens, UniProt P37059); assay: Inhibition of h17β-HSD2 in a cellular assay (MDA-MB-231); format: cell-based; conditions: MDA-MB-231 cell line, substrate E2 [200 nM], 6 h; for inhibition at 0.25 µM: MDA-MB-231, 250 nM, read-out: % inh HSD2 at 250 nM; for inhibition at 1.25 µM: MDA-MB-231, 1250 nM, read-out: % inh HSD2 at 1250 nM
T2 sequence (P37059 1-387): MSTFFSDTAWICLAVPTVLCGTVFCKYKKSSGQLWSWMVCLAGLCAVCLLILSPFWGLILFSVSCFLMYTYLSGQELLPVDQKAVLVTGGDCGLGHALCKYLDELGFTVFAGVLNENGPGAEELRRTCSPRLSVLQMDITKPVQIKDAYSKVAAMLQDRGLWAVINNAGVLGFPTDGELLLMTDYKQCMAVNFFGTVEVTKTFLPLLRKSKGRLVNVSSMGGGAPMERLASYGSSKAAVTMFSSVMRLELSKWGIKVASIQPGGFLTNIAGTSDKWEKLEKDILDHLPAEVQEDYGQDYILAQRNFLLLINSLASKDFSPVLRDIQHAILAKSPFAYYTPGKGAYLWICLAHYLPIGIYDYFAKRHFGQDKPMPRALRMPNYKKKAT
Experimental: Cellular h17β-HSD2 inhibitory activity is measured using the breast cancer cell-line MDA-MB-231[32] (17β-HSD1 activity negligible). [^3H]-E2 (200 nM) is taken as substrate and is incubated with the inhibitor for 6 h at 37°C. After ether extraction, substrate and product are separated by HPLC and detected with a radioflow detector. Potency is evaluated as percentage of inhibition (inhibitor concentrations used: 1250 nM and 250 nM).

[1] = Metabolic stability in a cell-free assay (liver S9 fraction); format: in vitro ADME; conditions: human liver S9 fraction 1 mg/ml, NADPH regenerating system, UDPGA, PAPS, 37°C, inhibitor 1 μM; for half-life at 1 μM: pooled liver S9 fraction, read-out: Inhibitor t1/2
Experimental: Compounds 7a, 8a, 16a, 19a, 22a, 27a and 27 were tested according to established method[33–35]For evaluation of phase I and II metabolic stability 1 μM compound was incubated with 1 mg/ml pooled mammalian liver S9 fraction (BD Gentest), 2 mM NADPH regenerating system, 1 mM UDPGA and 0.1 mM PAPS at 37°C for 0, 5, 15 and 60 minutes at a final volume of 100 μL. The incubation was stopped by precipitation of S9 enzymes with 2 volumes of cold acetonitrile containing internal standard. Concentration of the remaining test compound at the different time points was analyzed by LC-MS/MS and used to determine half-life (t1/2).

m17β-HSD1 = biological target: T3, m17β-HSD1 (Mus musculus, UniProt P51656); assay: Inhibition of m17β-HSD1 in cell-free assay; format: biochemical; conditions: recombinant m17β-HSD1, substrate E1 [500 nM], NADPH [500 μM]
T3 construct: host or cells: HEK 293 cells, transient transfection, 1000 g supernatant of the lysate
T3 sequence (P51656 1-344): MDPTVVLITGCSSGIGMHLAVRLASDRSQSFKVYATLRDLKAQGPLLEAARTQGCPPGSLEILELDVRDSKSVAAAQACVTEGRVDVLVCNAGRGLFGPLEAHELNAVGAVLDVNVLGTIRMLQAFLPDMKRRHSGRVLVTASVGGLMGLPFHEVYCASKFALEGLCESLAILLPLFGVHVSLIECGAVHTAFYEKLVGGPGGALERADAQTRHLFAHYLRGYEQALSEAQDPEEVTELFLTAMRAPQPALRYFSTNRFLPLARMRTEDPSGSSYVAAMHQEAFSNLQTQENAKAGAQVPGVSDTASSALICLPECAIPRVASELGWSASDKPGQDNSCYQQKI
Experimental: h17β-HSD2, h17β-HSD1, m17β-HSD2 and m17β-HSD1 cell-free assays were performed similarly, by incubating enzyme, tritiated substrate, cofactor and inhibitor, according to described procedures.
Recombinant m17β-HSD1 enzyme was produced by transfection of HEK 293 cells with a m17β-HSD1 expression plasmid (coding sequence of NM_010475 in pCMV6Entry vector, OriGene Technologies, Inc.) according to a described procedure. 48 hours after transfection cells were homogenized by sonication (3 x 10 s) in a buffer containing saccharose (40 mMTris, 250 mM saccharose, 5 mM EDTA, 7 mM DTT, 1 mM PMSF, pH 7,5). Cell lysate was centrifuged (1000 g, 15 min, 4°C) and 20% glycerol was added to the supernatant before aliquots were frozen and stored at -70°C.
The 17β-HSD1 inhibition assay was performed similarly to the h17β-HSD2 test. The human cytosolic enzyme was incubated with NADH [500 μM] while the mouse recombinant enzyme was reacted with NADPH [500 μM].Test compound and a mixture of unlabelled- and [^3H]-E1 (final concentration: 500 nM, 0.15 μCi) were added and mixed for 10 min at 37°C. Further treatment of the samples and HPLC separation was carried out as mentioned above for h17β-HSD2.

SMILES	displacement of E2 from ERα (ERα) [%]	inhibition at 0.25 µM (h17β-HSD2) [%]	inhibition at 1.25 µM (h17β-HSD2) [%]	half-life at 1 μM [1] [h]	inhibition of m17β-HSD1 at 1 μM (m17β-HSD1)	Inhibitor t1/2 [1]
COc1cccc(N(C)C(=O)c2ccc(-c3cccc(C)c3)cc2)c1 [Compound 6a, N-(3-methoxyphenyl)-N,3'-dimethyl-[1,1'-biphenyl]-4-carboxamide]	≤ 20	60	~90	1.77		
COc1cccc(N(C)C(=O)c2ccc(-c3ccc(C)c(C)c3)cc2)c1 [Compound 17a, N-(3-methoxyphenyl)-N,3',4'-trimethyl-[1,1'-biphenyl]-4-carboxamide]	≤ 20	66	~90	1.78	None of the tested compounds showed any inhibition	
Cc1cccc(N(C)C(=O)c2ccc(-c3cccc(C)c3F)cc2)c1 [Compound 21a, 2'-Fluoro-N,3'-dimethyl-N-(m-tolyl)-[1,1'-biphenyl]-4-carboxamide]	≤ 20				None of the tested compounds showed any inhibition	
Cc1cccc(-c2ccc(C(=O)N(C)Cc3cccc(O)c3)cc2)c1F [Compound 25, 2'-Fluoro-N-(3-hydroxybenzyl)-N,3'-dimethyl-[1,1'-biphenyl]-4-carboxamide]	≤ 20	67	~90	0.1	None of the tested compounds showed any inhibition	short half-life
